Results taken from patent US6391878B2, “Guanidinyl heterocycle compounds useful as alpha-2 adrenoceptor agonists” (The Procter & Gamble Company, priority 1996, dated 2002).

Assays:
patient with asthma = test: Inhalation aerosol given to a patient with asthma; type: in vivo, human; conditions: Example F inhalation aerosol 5.0 % w/v, two puffs from a metered-dose inhaler
Description: Two-puffs of the aerosol composition is inhaled from a metered-dose inhaler by a patient with asthma.

[1] = test system: patient with nasal congestion; test: Composition given to a patient with nasal congestion; type: in vivo, human
Method: One tablet is swallowed by a patient with nasal congestion.
One tablet is chewed and swallowed by a patient with nasal congestion.
One tablet is placed under the tongue of a patient with nasal congestion and allowed to dissolve.
One-tenth of a mL of the composition is sprayed from a pump actuator into each nostril of a patient with nasal congestion.
One-fifth of a mL of the composition is applied as drops from a dropper into each nostril of a patient with riasal congestion.
One 15 mL dose of the alcohol-free liquid medication is swallowed by a patient with nasal congestion.

[2] = test system: patient with nasal congestion and runny nose due to allergic rhinitis; test: Oral liquid given to a patient with nasal congestion and runny nose due to allergic rhinitis; type: in vivo, human; conditions: Example H oral liquid, 15 mg per 15 mL dose, with chlorpheniramine maleate 4 mg, one dose swallowed
Method: One 15 mL dose of the liquid composition is swallowed by a patient with nasal congestion and runny nose due to allergic rhinitis.

[3] = test system: human subject suffering from septic or cardiogenic shock; test: Intravenous solution given to a human subject suffering from septic or cardiogenic shock; type: in vivo; conditions: Example T parenteral solution 10 mg/ml carrier, approximately 2.0 ml intravenously
Method: The above ingredients are mixed, forming a solution. Approximately 2.0 ml of the solution is administered, intravenously, to a human subject suffering from septic or cardiogenic shock. The symptoms subside.

patient with migraine = test: Oral tablet given to a patient with migraine; type: in vivo, human; conditions: Example K oral tablet, 4 mg per tablet, one tablet swallowed
Description: One tablet is swallowed by a patient with migraine.

patient with glaucoma = test: Topical ophthalmic composition given to a patient with glaucoma, intraocular pressure; type: in vivo, human; conditions: Example G topical ophthalmic composition 0.10 % w/v, one-tenth of a mL into each eye
Method: One-tenth of a mL of the composition is administered directly into each eye of a patient with glaucoma.

## Cc1cc(NC(=N)N)c(C)c2[nH]cnc12 [Subject Compound 2, (4,7-Dimethylbenzimidazol-5-yl)guanidine]
Patient with asthma
  asthmatic condition: effectively relieved
[1]; Example J alcohol-free oral liquid, 30 mg per 15 mL dose, one dose swallowed
  nasal congestion: substantially diminished

## Cc1c(NC(=N)N)ccc2c1ncn2C [Subject Compound 4, (1,4-Dimethylbenzimidazol-5-yl)quanidine]
[1]; Example A oral tablet, 20.0 mg per tablet, one tablet swallowed
  nasal congestion: substantially diminished
[2]
  congestion and runny nose: effectively reduced

## Cc1nc2c(C)c(NC(=N)N)ccc2[nH]1 [Subject Compound 3, (2,4-Dimethylbenzimidazol-5-yl)quanidine]
[1]; Example D intranasal solution 0.20 % w/v, one-tenth of a mL sprayed into each nostril
  nasal congestion: substantially diminished

## Cc1c(NC(=N)N)ccc2nc[nH]c12 [Subject Compound 1, (4-Methylbenzimidazol-5-yl)guanidine]
[3]
  symptoms of septic or cardiogenic shock: subside
[1]; Example B chewable tablet, 15.0 mg per tablet, one tablet chewed and swallowed
  nasal congestion: substantially reduced
[1]; Example E intranasal gel 0.10 % w/v, one-fifth of a mL as drops into each nostril
  nasal congestion: substantially reduced
Patient with migraine
  pain and aura of migraine: substantially diminished

## N=C(N)Nc1ccc2nc[nH]c2c1Br [Subject Compound 5, (4-Bromobenzimidazol-5-yl)guanidine]
Patient with glaucoma
  intraocular pressure: substantially reduced
[1]; Example C sublingual tablet, 2.00 mg per tablet, dissolved under the tongue
  nasal congestion: rapidly and substantially diminished
